In ChEMBL document CHEMBL1133815, “Anti-Trypanosoma activity of some natural stilbenoids and synthetic related heterocyclic compounds” (Bioorg Med Chem Lett, 2001):
In brackets after ≈: the same amount, converted by molar mass. Several values for one entry are separate records, joined by “and”; a condition that tells them apart may be missing. Identical values can stand only once.

Legend:
Trypanosoma cruzi [1] = test: Inhibitory concentration against epimastigotes (Tulahuen strain) of Trypanosoma cruzi; Inactive; type: functional, organism-based
Trypanosoma cruzi [2] = test: Inhibitory concentration against trypomastigotes (Y strain) of Trypanosoma cruzi; Inactive; type: functional, organism-based
Trypanosoma cruzi [3] = test: Inhibitory concentration against Epimastigotes (Tulahuen strain) of Trypanosoma cruzi; type: functional, organism-based
Trypanosoma cruzi [4] = test: Inhibitory concentration against Trypomastigotes (Y strain) of Trypanosoma cruzi; type: functional, organism-based
[5] = Ratio of inhibitory concentration to that of reference drug was determined; type: functional
[6] = Trypanosoma cruzi, read-out: IC50

Row | IC50 (Trypanosoma cruzi [1]) | IC50 (Trypanosoma cruzi [2]) | SMILES | also measured
1 | > 100 µg/mL | > 100 µg/mL | COc1ccc(/C=C2\OC(=O)c3ccccc32)cc1OC | –
2 | 10 µg/mL (≈ 33.5 µM) | 2.3 µg/mL (≈ 7.7 µM) | OC1(Cc2ccc(Cl)cc2)c2ccccc2C2=NCCN21 (stereo unspecified) | IC50 (Trypanosoma cruzi [3]): 33.6 µM; IC50 (Trypanosoma cruzi [4]; [6]): 7.9 µM
3 | > 100 µg/mL | > 100 µg/mL | COc1ccc(C(=O)C(=O)c2ccccc2C(=O)N2CCCCC2)cc1OC | –
4 | > 100 µg/mL | > 100 µg/mL | COc1ccc(CC(=O)c2ccccc2C(=O)N2CCCCC2)cc1 | –
5 | > 100 µg/mL | > 100 µg/mL | COc1ccc(CC2(O)c3ccccc3C3=NCCCN32)cc1 (stereo unspecified) | –
6 | > 100 µg/mL | > 100 µg/mL | O=c1[nH]nc(Cc2ccccc2)c2ccccc12 | –
7 | 45 µg/mL (≈ 202 µM) | > 100 µg/mL | O=C1O/C(=C\c2ccccc2)c2ccccc21 | –
8 | > 100 µg/mL | > 100 µg/mL | O=C(C(=O)c1ccccc1C(=O)N1CCCCC1)c1ccccc1 | –
9 | > 100 µg/mL | > 100 µg/mL | Cn1nc(Cc2ccccc2)c2ccccc2c1=O | –
10 | – | > 100 µg/mL | COc1ccc(CCc2cc(O)cc(OC)c2C(=O)O)cc1 [ISONOTHOLAENIC ACID] | –
11 | > 100 µg/mL | > 100 µg/mL | COc1ccc(/C=C2\OC(=O)c3ccccc32)cc1 | –
12 | – | – | COc1ccc(CCc2cc(O)cc(OC)c2C(=O)N2CCCCC2)cc1 | IC50 (Trypanosoma cruzi [3]): 30 µg/mL and 81.3 µM; IC50 (Trypanosoma cruzi [4]): 12 µg/mL and 33 µg/mL
13 | > 100 µg/mL | > 100 µg/mL | Oc1nnc(Cc2ccc(Cl)cc2)c2ccccc12 | –
14 | – | – | O=C(Cn1ccnc1[N+](=O)[O-])NCc1ccccc1 [BENZNIDAZOLE] | IC50 (Trypanosoma cruzi [3]): 7.4 µg/mL and 30 µM; Ratio [5]: 1
15 | > 100 µg/mL | > 100 µg/mL | O=C1O/C(=C\c2ccc(Cl)cc2)c2ccccc21 | –
16 | > 100 µg/mL | > 100 µg/mL | COc1cc(/C=C2\OC(=O)c3ccccc32)cc(OC)c1OC | –
17 | – | > 100 µg/mL | COc1cc(C(=O)C(=O)c2ccccc2C(=O)N2CCCCC2)cc(OC)c1OC | –
18 | – | > 100 µg/mL | COc1cc(CC(=O)c2ccccc2C(=O)N2CCCCC2)cc(OC)c1OC | –
19 | > 100 µg/mL | > 100 µg/mL | COc1ccc(CCc2cc(OC(C)=O)cc(OC)c2C(=O)O)cc1 | –
20 | – | > 100 µg/mL | OC1(Cc2ccccc2)c2ccccc2C2=NCCN21 (stereo unspecified) | –
21 | > 100 µg/mL | > 100 µg/mL | COc1cc(CC2(O)c3ccccc3C3=NCCCN32)cc(OC)c1OC (stereo unspecified) | –
22 | > 100 µg/mL | > 100 µg/mL | O=C(C(=O)c1ccccc1C(=O)N1CCCCC1)c1ccc2c(c1)OCO2 | –
23 | > 100 µg/mL | > 100 µg/mL | COc1ccc(CCc2cc(O)cc(OC)c2)cc1 | –
24 | > 100 µg/mL | > 100 µg/mL | O=C(C(=O)c1ccccc1C(=O)N1CCCCC1)c1ccc(Cl)cc1 | –
25 | > 100 µg/mL | > 100 µg/mL | O=C(Cc1ccccc1)c1ccccc1C(=O)N1CCCCC1 | –
26 | > 100 µg/mL | > 100 µg/mL | COC(=O)c1c(CCc2ccc(OC)cc2)cc(O)cc1OC | –

Row | IC50 (Trypanosoma cruzi [1]) | IC50 (Trypanosoma cruzi [2]) | SMILES | also measured
27 | – | – | CN(C)c1ccc(C(=C2C=CC(=[N+](C)C)C=C2)c2ccc(N(C)C)cc2)cc1.[Cl-] [GENTIAN VIOLET] | IC50 (Trypanosoma cruzi [4]; [6]): 100 µg/mL and 245 µM
28 | > 100 µg/mL | > 100 µg/mL | COc1ccc(CC2(O)c3ccccc3C3=NCCN32)cc1OC (stereo unspecified) | –
29 | – | > 100 µg/mL | COc1ccc(CC2(O)c3ccccc3C3=NCCN32)cc1 (stereo unspecified) | –
30 | > 100 µg/mL | > 100 µg/mL | COc1ccc(Cc2nn(C)c(=O)c3ccccc23)cc1 | –
31 | > 100 µg/mL | > 100 µg/mL | O=C(Cc1ccc(Cl)cc1)c1ccccc1C(=O)N1CCCCC1 | –
32 | > 100 µg/mL | > 100 µg/mL | COc1ccc(Cc2nnc(O)c3ccccc23)cc1OC | –
33 | > 100 µg/mL | > 100 µg/mL | COc1ccc(CC(=O)c2ccccc2C(=O)N2CCCCC2)cc1OC | –
34 | > 100 µg/mL | > 100 µg/mL | Oc1nnc(Cc2ccc3c(c2)OCO3)c2ccccc12 | –
35 | > 100 µg/mL | > 100 µg/mL | OC1(Cc2ccc3c(c2)OCO3)c2ccccc2C2=NCCCN21 (stereo unspecified) | –
36 | – | > 100 µg/mL | OC1(Cc2ccc(Cl)cc2)c2ccccc2C2=NCCCN21 (stereo unspecified) | –
37 | > 100 µg/mL | > 100 µg/mL | Cn1nc(Cc2ccc3c(c2)OCO3)c2ccccc2c1=O | –
38 | > 100 µg/mL | > 100 µg/mL | COc1ccc(C(=O)C(=O)c2ccccc2C(=O)N2CCCCC2)cc1 | –
39 | > 100 µg/mL | > 100 µg/mL | COc1ccc(C(=O)C(=O)c2ccccc2C(=O)N2CCCC2)cc1 | –
40 | > 100 µg/mL | > 100 µg/mL | COc1ccc(Cc2nn(C)c(=O)c3ccccc23)cc1OC | –
41 | > 100 µg/mL | > 100 µg/mL | COc1cc(CC2(O)c3ccccc3C3=NCCN32)cc(OC)c1OC (stereo unspecified) | –
42 | > 100 µg/mL | > 100 µg/mL | COc1cc(Cc2nn(C)c(=O)c3ccccc23)cc(OC)c1OC | –
43 | – | > 100 µg/mL | OC1(Cc2ccccc2)c2ccccc2C2=NCCCN21 (stereo unspecified) | –
44 | > 100 µg/mL | > 100 µg/mL | O=C(Cc1ccc2c(c1)OCO2)c1ccccc1C(=O)N1CCCCC1 | –
45 | > 100 µg/mL | > 100 µg/mL | COc1ccc(Cc2nnc(O)c3ccccc23)cc1 | –
46 | > 100 µg/mL | > 100 µg/mL | COc1cc(Cc2nnc(O)c3ccccc23)cc(OC)c1OC | –
47 | > 100 µg/mL | > 100 µg/mL | O=C1O/C(=C\c2ccc3c(c2)OCO3)c2ccccc21 | –
48 | > 100 µg/mL | > 100 µg/mL | CCNC(=O)c1ccccc1C(=O)C(=O)c1ccc(OC)cc1 | –
49 | > 100 µg/mL | > 100 µg/mL | Cn1nc(Cc2ccc(Cl)cc2)c2ccccc2c1=O | –
50 | > 100 µg/mL | > 100 µg/mL | OC1(Cc2ccc3c(c2)OCO3)c2ccccc2C2=NCCN21 (stereo unspecified) | –
51 | > 100 µg/mL | > 100 µg/mL | COc1ccc(CC2(O)c3ccccc3C3=NCCCN32)cc1OC (stereo unspecified) | –
